Measured values published in ChEMBL document CHEMBL1137113, “A convenient and biogenetic type synthesis of few naturally occurring chromeno dihydrochalcones and their in vitro antileishmanial activity” (2004).
The source made the active and inactive calls. No cut-off for these calls is given here.

Tests used:
[1] = test system: Leishmania donovani; test: In-vitro antileishmanial activity was tested against intracellular amastigotes of Leishmania donovani at dose 50 ug/mL; format: functional
[2] = test system: Leishmania donovani; test: In-vitro antileishmanial activity was tested against extracellular promastigotes of Leishmania donovani at dose of 50 ug/mL; format: functional
[3] = test system: Leishmania donovani; test: In-vitro antileishmanial activity was tested against extracellular promastigotes of Leishmania donovani at dose of 5 ug/mL; format: functional
[4] = test system: Leishmania donovani; test: In-vitro antileishmanial activity was tested against intracellular amastigotes of Leishmania donovani at dose 5 ug/mL; format: functional
[5] = test system: Leishmania donovani; test: In-vitro antileishmanial activity was tested against intracellular amastigotes of Leishmania donovani at dose 50 ug/mL; IA is inactive; format: functional, organism-based
[6] = test system: Leishmania donovani; test: In-vitro antileishmanial activity was tested against extracellular promastigotes of Leishmania donovani at dose of 50 ug/mL; IA is inactive; format: functional, organism-based
[7] = test system: Leishmania donovani; test: In-vitro antileishmanial activity was tested against intracellular amastigotes of Leishmania donovani at dose 50 ug/mL; Toxic; format: functional, organism-based

Row | Compound | inhibition at 50 µg/mL [1] | inhibition at 50 µg/mL [2] | further results
1 | CC1(C)C=Cc2c(ccc(C(=O)/C=C/c3ccc(O)cc3)c2O)O1 | 74% | 84% | 
2 | COc1ccc(/C=C/C(=O)c2ccc3c(c2O)C=CC(C)(C)O3)cc1 | 53% | 85% | 
3 | COc1ccc(/C=C/C(=O)c2ccc(O)cc2O)cc1 | 15% | 60% | 
4 | N=C(N)c1ccc(OCCCCCOc2ccc(C(=N)N)cc2)cc1 [PENTAMIDINE] |  |  | inhibition at 5 µg/mL [3]: 97%; inhibition at 5 µg/mL [4]: 50%
5 | CC1(C)C=Cc2c(ccc(C(=O)CCc3ccc(O)c(O)c3)c2O)O1 |  | 30% | inhibition [5]: inactive
6 | Stibanate |  |  | inhibition [1]: 85%; inhibition [6]: inactive
7 | COc1ccc(CCC(=O)c2ccc(O)cc2O)cc1OC |  | 79% | inhibition [7]: Toxic
8 | CC1(C)C=Cc2c(ccc(C(=O)CCc3ccc(O)cc3)c2O)O1 |  | 89% | inhibition [7]: Toxic
9 | COc1ccc(CCC(=O)c2ccc3c(c2O)C=CC(C)(C)O3)cc1OC | 22% |  | inhibition [6]: inactive
10 | COc1ccc(CCC(=O)c2ccc3c(c2O)C=CC(C)(C)O3)cc1 | 47% | 78% | 
